Data published in US20140295012A1, “LATENT HUMAN IMMUNODEFICIENCY VIRUS REACTIVATION” (priority 2011, published 2014).
*1 amine or outer side, *2 acyl side, *3 side chain or, on linkers, in order; H or OH if unused. Where a SMILES comes first, the peptide text is derived from it. Bridges are numbered along the chain shown (N, C = ends). Roman numbers before positions name the chains, in order. [ ]: non-standard residue; d: D form. Actinocin(9to1) = Cc1c2oc3c(C)ccc(C(=O)[*:1])c3nc-2c(C(=O)[*:2])c(N)c1=O; NMeV = CN[C@H](C(=O)O)C(C)C; Sar = CNCC(=O)O

B1: HRF: flagellin polypeptide from Massilia timonae (SEQ ID NO:10), used as bacterial culture supernatant (protein)
chain: MASVINTNVPSLNSQRNLSTSQAQLNTSIQRLSSGMRINSAKDDAAGLAISDRMNSQIKGMTQATRNANDGVSMAQTAEGALSSSGDILQRIRELAVQSSNSSNSASDRKALQTEVTQLSSELNRIANTTEFNGQKLMDGTLGTANFQVGANAGQLISMTGANFNTSVYGNNQIAGDAAKAAATTSAAATGAFTISGYLGTSAAINTTDADTAKTIAASINNVTGDTGVTATARTDSFLKSAGGAHTMSLASDNSGTGEAVDISFTVGDGGDTADDYAAAISAFNAQTAKTGVTAEYDAVEKGLKLTNSAGENISLTNKAGSADIDMDTYAADGALMASALTLEAGDVGVANGRVTMDSEKSFSVAEGTDTGFELADSSALKSVAKIDISDFEGAQEAIKVADAALSAVNSQRAEYGALQSRFESAISNLSSSTENLSASRSRIVDTDFAAETAKMTRGQILQQAGTSMLAQANSLPNGVLSLLRG

How the values were obtained:
Assay type in all cases: cell-based
P-TEFb/HEXIM-1 complex = test: Glycerol gradient sedimentation analysis of P-TEFb/HEXIM-1 complex in J89GFP cells (Western blot)
Experimental: J89GFP cells were left untreated, treated with a high concentration of dactinomycin for 1 hour or with the physiological optimal concentration (0.004 μg/ml or 0.01 μg/ml) for 18 hours. Cell lysates were separated on a glycerol gradient (10-45%). Each gradient fraction was separated on a 10% SDS-PAGE gel and transferred by Western blot. […] Band densities were determined using ImageJ and are presented as relative band density. […] Band densities were determined using ImageJ and are presented as relative band density.
Ten million J89GFP or CA5 T cells were left untreated or treated with 0.004 μg/mL, 0.01 μg/ml or 1 μg/mL dactinomycin for 18 hours or 1 hour, respectively. Cells were washed twice with cold PBS, then lysed for 30 minutes on ice in lysis buffer (0.5% TritonX100, 20 mM HEPES (pH7.9), 150 mM NaCl, 20 mM KCl, 2 mM MgCl2, 1 mM DTT, 0.2 mM EDTA, and protease inhibitor cocktail (P8340; SIGMA)), followed by centrifugation at 14,000 rpm for 10 minutes. The same amount of protein lysate was fractionated on 5 ml of a 10-45% glycerol gradient in lysis buffer in a SW-Ti55 rotor (Beckman Coulter; Miami, Fla.) for 16 hours at 45,000 rpm. Fractions were resolved on 10% SDS-PAGE and transferred to polyvinylidene fluoride membrane. The antibodies used for Western blotting were rabbit anti-Cdk9 (sc-484; Santa Cruz Biotechnology; Santa Cruz, Calif.) and rabbit anti-HEXIM1 (ab25388; Abcam; Cambridge, Mass.), respectively.
To test the idea that dactinomycin primed latent HIV-1 infection for reactivation by releasing P-TEFb (a complex of CDK9 and Cyclin T1) from its complex with HEXIM-1, the latently HIV-1 infected J89GFP or CA5 T cells were treated with 1.0 μg/ml dactinomycin for 1 hour or with the physiological optimal concentration of 0.004 μg/ml for 18 hours. Cell lysates were then separated on a glycerol gradient (10-45%) to reveal possible changes in the composition of the P-TEFb/HEXIM-1 complex. […] Each gradient fraction was separated on a SDS-PAGE gel and subjected to Western blotting. […] Similar results were obtained using anti-HEXIM-1 antibody. […] The minimal dactinomycin concentration to induce a shift towards the small complex was 0.01 μg/ml of dactinomycin. […] Similar results were obtained using the latently infected CA5 T cells.

[1] = system: latently HIV-1 infected EF7 cells; test: Priming of latent HIV-1 infection in EF7 T cells (converse sense integration); details: 4 ng/ml, 18 hours pretreatment
Experimental: FIGS. 13A-B show the effect of dactinomycin on latent infection as a function of the orientation of integration relative to the direction of host-gene transcription. HIV-1 can integrate in the same transcriptional orientation as the host-gene or in the converse sense. Two latently HIV-1 infected T cell lines, which were determined to have HIV-1 integrated in the same sense orientation (CA5 cells) (FIG. 13A) and in the converse sense orientation (EF7 cells) (FIG. 13B) were used. For either cell line, the host-gene name, the position of integration and the chromosome number is given. For either T cell line, reactivation levels achieved by TNF-α treatment alone or by TNF-α stimulation following pretreatment with 4 ng/ml dactinomycin for 18 hours are shown. Reactivation levels were determined using flow cytometric analysis for GFP expression. The gray dotted line represents maximum achievable reactivation levels using PMA.
The sense of orientation of the integrated latent virus, relative to the transcriptional direction of the host-gene, was investigated to determine whether the orientation would influence the ability of dactinomycin to prime latent infection for reactivation. […]

HIV-1 LTR = test: Tat-independent activation of integrated LTR-GFP construct in NOMI reporter T cells; details: 24 hours
Experimental: FIGS. 6A-6C show HRF triggers suboptimal functional induction of NF-κB dependent gene expression. […] The HIV-1 reactivating kinetics were determined by stimulating CA5 T cells with optimal concentrations of HRF, phorbol 12-myristate 13-acetate (PMA) and tumor necrosis factor-α (TNF-α) and analyzing HIV-1 reactivation as a function of EGFP-expression over a period of 48 hours. Data for all agents are depicted as the percentage of EGFP-positive cells in the total cell population. […] To test the ability of HRF to mediate Tat-independent activation of the HIV-1 LTR, NOMI cells (HIV-1 reporter cell line with an integrated LTR-EGFP construct) were stimulated with increasing concentrations of PMA (0.01-10 ng/ml), TNF-α (0.003-30 μg/ml) and HRF supernatant (0.3-100 μl). The level of LTR-induction was then measured as EGFP-expression detectable after 24 hours as determined by flow cytometric analysis. Arrows indicate the concentrations at which the respective stimulus would have triggered full HIV-1 reactivation in the latently HIV-1 infected CA5 T cell line. […] 293T cells were transfected with several NF-κB dependent promoter constructs and then stimulated with either TNF-α (10 μg/ml) or HRF (25 μl). Promoter induction was measured as total EGFP expression. (NF-κB:pNF-κB-d2EGFP; LTR:HIV-1 LTR-GFP; IL-8:pIL-8 GFP; TNF:human TNF-GFP; MSCV:murine stem cell virus LTR driven GFP; no NF-κB responsive elements).
As the NF-κB pathway has been recognized as vital to HIV-1 activation, the ability of HRF to trigger NF-κB activation was investigated. It was initially determined that HRF had the ability to stimulate Tat independent activation of an integrated LTR-GFP construct in NOMI reporter T cells.

Row | Molecule | shift of CDK9 from large to small complex (P-TEFb/HEXIM-1 complex; 0.004 μg/ml for 18 hours) | shift of HEXIM-1 towards the small complex (P-TEFb/HEXIM-1 complex; 0.004 μg/ml for 18 hours) | release of P-TEFb from its complex with HEXIM-1 (anti-CDK9) (P-TEFb/HEXIM-1 complex; 1 μg/ml for 1 hour, J89GFP) | minimal concentration to induce a shift of HEXIM-1 towards the small complex (P-TEFb/HEXIM-1 complex; 18 hours) [µg/mL] | priming effect for reactivation by TNF-α [1] | Tat-independent activation of integrated LTR-GFP construct (GFP expression) (HIV-1 LTR)
1 | Cc1c2oc3c(C)ccc(C(=O)N[C@@H]4C(=O)N[C@H](C(C)C)C(=O)N5CCC[C@H]5C(=O)N(C)CC(=O)N(C)[C@@H](C(C)C)C(=O)O[C@@H]4C)c3nc-2c(C(=O)N[C@@H]2C(=O)N[C@H](C(C)C)C(=O)N3CCC[C@H]3C(=O)N(C)CC(=O)N(C)[C@@H](C(C)C)C(=O)O[C@@H]2C)c(N)c1=O [dactinomycin] (I: T[dV]P[Sar][NMeV] / II: T[dV]P[Sar][NMeV]; ester I:1-I:C, II:1-II:C; linker I:N-II:N via Actinocin(9to1)) | shift of CDK9 presence from the large complex to the small complex was also detected | no shift towards the small complex was observed | quantitatively released P-TEFb | 0.01 | exerted its priming effect in each integration scenario | 
2 | B1 |  |  |  |  |  | modest increase in GFP expression
